In patent US9783536B2, “Nitrogen-containing heterocyclic compound or salt thereof” (FUJIFILM Corporation, priority 2013, dated 2017):
pIC50: −log10 of the molar value. Like-named read-outs stand apart in the source and are kept apart here.

Columns and labels:
[1] = molecular target: T1, GST fusion human ERK2 protein (Homo sapiens, UniProt P28482); test: ERK2 enzyme assay (2); type: biochemical; conditions: read-out: ERK2 enzyme inhibitory activity (2)
T1 construct: purchased Carna Biosciences, Inc; host or cells: E. coli expression system
T1 sequence (P28482 whole entry, the tested form may be a part): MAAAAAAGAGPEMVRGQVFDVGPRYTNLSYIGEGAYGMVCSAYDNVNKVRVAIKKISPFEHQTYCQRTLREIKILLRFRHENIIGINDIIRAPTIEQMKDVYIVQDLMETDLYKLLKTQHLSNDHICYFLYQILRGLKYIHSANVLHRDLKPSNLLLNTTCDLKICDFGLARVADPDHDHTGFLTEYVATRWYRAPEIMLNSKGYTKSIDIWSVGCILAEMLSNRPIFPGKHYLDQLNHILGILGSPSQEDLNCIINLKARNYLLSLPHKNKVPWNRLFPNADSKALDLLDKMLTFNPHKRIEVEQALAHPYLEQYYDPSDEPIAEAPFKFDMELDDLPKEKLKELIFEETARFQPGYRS
Method: In an ERK2 enzyme assay, GLUTATHIONE S-TRANSFERASE (GST) FUSION HUMAN ERK2 PROTEIN (manufactured by Carna Biosciences, Inc.), which was produced by using an E. coli expression system, was used.
12 μL of a reaction liquid (1.25 nmol/L ERK2, 100 mmol/L Hepes, 10 mmol/L MgCl2, 1.5 mmol/L DTT, 0.003% Brij35, pH 7.5) including ERK2 protein and a test compound having a predetermined concentration was allowed to stand at room temperature for 15 minutes. Then, 3 μL of a mixture liquid of FL-PEPTIDE8 (5-FAM-IPTSPITTTYFFFKKK-COOH) (manufactured by Caliper Life Sciences), which is substrate peptide, and ATP (manufactured by Sigma-Aldrich Co. LLC.) was added thereto such that the final concentrations thereof became 4.25 μmol/L and 1 mmol/L, respectively, and an enzyme reaction was performed by allowing to stand at 25° C. for 120 minutes.
After the reaction, the enzyme reaction was stopped by adding 30 μL of a reaction stopper liquid (100 mmol/L HEPES, 11.2 mmol/L EDTA, 5.6% Brij35, pH 7.5) including a 0.5% COATING REAGENT 8 (trade name, manufactured by Perkin Elmer Inc.) thereto. Then, phosphorylated peptide and non-phosphorylated peptide were separated using LABCHIP EZ READER (trade name, manufactured by Caliper Life Sciences), and the porportion of the phosphorylated peptide was quantified.
(§1) The inhibitory activities of the compounds were evaluated using IC50 (50% inhibitory concentration). The IC50 was calculated using XLFIT (trade name, manufactured by ID Business Solutions).

human PI3Kα protein = molecular target: T2, human PI3Kα protein (Homo sapiens, UniProt P42336); test: PI3Kα enzyme assay (ADP-Glo); type: biochemical; conditions: read-out: PI3Kα enzyme inhibitory activity
T2 construct: purchased Carna Biosciences, Inc; host or cells: baculovirus expression system
T2 sequence (P42336 whole entry): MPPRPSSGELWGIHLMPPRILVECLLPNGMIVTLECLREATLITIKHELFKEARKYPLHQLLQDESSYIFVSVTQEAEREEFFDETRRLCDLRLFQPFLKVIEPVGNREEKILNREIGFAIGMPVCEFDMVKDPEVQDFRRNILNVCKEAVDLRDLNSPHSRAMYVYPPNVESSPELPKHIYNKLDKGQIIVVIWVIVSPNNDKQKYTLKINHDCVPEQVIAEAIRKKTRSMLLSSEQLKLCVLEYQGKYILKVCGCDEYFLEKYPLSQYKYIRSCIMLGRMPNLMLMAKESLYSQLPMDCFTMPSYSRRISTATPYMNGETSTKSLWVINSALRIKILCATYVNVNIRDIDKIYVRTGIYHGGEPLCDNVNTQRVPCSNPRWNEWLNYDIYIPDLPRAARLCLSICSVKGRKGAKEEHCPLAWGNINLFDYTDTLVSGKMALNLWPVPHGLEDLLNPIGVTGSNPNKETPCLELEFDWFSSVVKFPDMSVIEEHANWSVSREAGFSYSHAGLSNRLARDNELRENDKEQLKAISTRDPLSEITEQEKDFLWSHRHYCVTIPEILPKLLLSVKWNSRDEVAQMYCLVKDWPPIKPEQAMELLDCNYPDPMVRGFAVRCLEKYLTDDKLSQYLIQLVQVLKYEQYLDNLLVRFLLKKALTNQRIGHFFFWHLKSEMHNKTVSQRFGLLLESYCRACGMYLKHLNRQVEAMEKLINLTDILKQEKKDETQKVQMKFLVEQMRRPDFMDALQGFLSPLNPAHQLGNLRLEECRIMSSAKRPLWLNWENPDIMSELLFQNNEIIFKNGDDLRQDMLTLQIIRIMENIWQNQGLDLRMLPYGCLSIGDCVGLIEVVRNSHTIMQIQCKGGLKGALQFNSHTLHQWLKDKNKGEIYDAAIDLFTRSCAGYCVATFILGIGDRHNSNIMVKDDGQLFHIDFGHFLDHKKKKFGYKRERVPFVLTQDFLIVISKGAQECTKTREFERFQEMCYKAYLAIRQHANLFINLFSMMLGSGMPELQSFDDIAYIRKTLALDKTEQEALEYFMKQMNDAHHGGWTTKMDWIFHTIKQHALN
T2 sequence (P27986 whole entry partner): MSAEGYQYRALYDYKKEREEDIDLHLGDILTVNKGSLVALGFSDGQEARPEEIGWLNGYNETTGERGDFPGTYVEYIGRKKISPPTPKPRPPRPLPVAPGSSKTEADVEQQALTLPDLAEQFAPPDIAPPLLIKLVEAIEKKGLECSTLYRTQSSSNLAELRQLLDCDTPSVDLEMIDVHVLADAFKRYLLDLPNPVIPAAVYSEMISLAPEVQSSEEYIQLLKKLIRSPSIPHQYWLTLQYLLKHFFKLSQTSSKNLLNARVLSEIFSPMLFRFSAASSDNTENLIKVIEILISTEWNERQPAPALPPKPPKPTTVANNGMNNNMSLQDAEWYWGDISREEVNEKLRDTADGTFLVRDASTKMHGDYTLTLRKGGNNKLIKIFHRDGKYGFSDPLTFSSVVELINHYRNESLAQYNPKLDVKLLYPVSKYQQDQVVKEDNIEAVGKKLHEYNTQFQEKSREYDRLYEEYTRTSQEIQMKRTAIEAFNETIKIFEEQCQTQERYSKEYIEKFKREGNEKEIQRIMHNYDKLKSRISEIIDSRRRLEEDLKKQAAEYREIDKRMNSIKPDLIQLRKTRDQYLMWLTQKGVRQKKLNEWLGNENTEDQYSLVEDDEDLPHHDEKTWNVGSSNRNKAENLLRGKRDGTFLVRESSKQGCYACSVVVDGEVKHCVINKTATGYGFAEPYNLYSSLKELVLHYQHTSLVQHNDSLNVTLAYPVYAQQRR
Method: In a PI3Kα enzyme assay, a product (manufactured by Carna Biosciences, Inc.) obtained by biotinylating a human PI3Kα protein produced by using a baculovirus expression system was used. In addition, in the detection of enzyme activity, ADP-GLO KINASE ASSAY (trade name, manufactured by PROMEGA Corporation) was used.
10 μL of a reaction liquid (4.5 nmol/L PI3Kα, 40 mmol/L Tris-HCl, 20 mmol/L MgCl2, 0.1% BSA, pH 7.5) including the human PI3Kα protein and a test compound having a predetermined concentration was allowed to stand at room temperature for 15 minutes. Then, 5 μL of a mixture liquid of L-α-phosphatidylinositol 4,5-diphosphate (PIP2) (manufactured by Sigma-Aldrich Co. LLC.) and ATP (manufactured by Sigma-Aldrich Co. LLC.), which are substrates, was added thereto such that final concentrations thereof became 50 μmol/L and 100 μmol/L, respectively, and an enzyme reaction was performed by allowing to stand at 25° C. for 60 minutes.
After the reaction, the enzyme reaction was stopped by adding 15 μL of an ADP-GLO REAGENT (trade name, manufactured by PROMEGA Corporation) thereto and allowing to stand at room temperature for 60 minutes. Then, 30 μL of a KINASE DETECTION REAGENT (trade name, manufactured by PROMEGA Corporation) was added thereto, followed by allowing to stand at room temperature for 40 minutes, and ADP produced by the enzyme reaction was quantified by emission intensity.
ENVISION (trade name, manufactured by Perkin Elmer Inc.) was used for the measurement of the emission intensity.
as §1

[2] = 4.5 nmol/L PI3Kα, PIP2 50 μmol/L, ATP 100 μmol/L

Structure (SMILES) | pIC50 ([1]; ERK2 enzyme assay (2)) | pIC50 (human PI3Kα protein) | further results
CC(C)c1cnnc(Nc2ccc3ncc(-c4cnn(CCC5CCOCC5)c4)cc3n2)c1 [Example 0483] | > 6.00 | > 6.00 | –
COCc1cnnc(Nc2ccc3ncc(-c4cn(C)nc4C)cc3n2)c1 [Example 0923] | – | > 6.00 | pIC50 [1]: > 6.00
CC(C)c1cnnc(Nc2ccc3ncc(-c4ccc(=O)n(CCCN5CCOCC5)c4)cc3n2)c1 [Example 0618] | > 6.00 | > 6.00 | –
CC(C)c1cnnc(Nc2ccc3ncc(-c4cn(C)nc4-c4ccnc(N(C)C)c4)cc3n2)c1 [Example 0753, 7-(3-(2-(Dimethylamino)pyridin-4-yl)-1-methyl-1H-pyrazol-4-yl)-N-(5-isopropylpyridazin-3-yl)-1,5-naphthyridine-2-amine] | – | > 6.00 | –
CC(C)c1cnnc(Nc2ccc3ncc(-c4cnn(C)c4)c(O)c3n2)c1 [Example 0915, 6-((5-Isopropylpyridazin-3-yl)amino)-3-(1-methyl-1H-pyrazol-4-yl)-1,5-naphthyridine-4-ol] | – | – | pIC50 [1]: 4.30 to 5.00
Cn1cc(-c2cnc3ccc(Nc4cccc(N)c4)nc3c2)cn1 [Example 0677, N^1-(7-(1-methyl-1H-pyrazol-4-yl)-1,5-naphthyridin-2-yl)benzene-1,3-diamine] | – | 5.00 to 6.00 | –
Cn1cc(-c2cnc3ccc(Nc4nccn4C)nc3c2)cn1 [Example 0516, N-(1-methyl-1H-imidazol-2-yl)-7-(1-methyl-1H-pyrazol-4-yl)-1,5-naphthyridine-2-amine] | – | 4.30 to 5.00 | –
Cc1ccc(S(=O)(=O)NC2CN(c3cnc4ccc(Nc5cc(C(C)C)cnn5)nc4c3)C2)cc1 [Example 0866] | – | 5.00 to 6.00 | –
CC(C)c1cnnc(Nc2ccc3ncc(C(=O)NCc4ccccc4)cc3n2)c1 [Example 0647, N-benzyl-6-((5-isopropylpyridazin-3-yl)amino)-1,5-naphthyridine-3-carboxamide] | 5.00 to 6.00 | – | –
CC(C)c1cnnc(Nc2ccc3ncc(C(=O)Nc4ccccc4)cc3n2)c1 [Example 0668] | 5.00 to 6.00 | – | –
CCOC(=O)c1csc(Nc2ccc3ncc(-c4cnn(C)c4)cc3n2)n1 [Example 0034, ethyl 2-((7-(1-methyl-1H-pyrazol-4-yl)-1,5-naphthyridin-2-yl)amino)thiazole-4-carboxylate] | – | – | pIC50 (human PI3Kα protein; [2]): 5.00 to 6.00
CC(C)c1nnc(Nc2ccc3nccc(Nc4ccccn4)c3n2)s1 [Example 0005] | – | – | pIC50 (human PI3Kα protein; [2]): > 6.00
Cn1cc(-c2cnc3ccc(Nc4cc(-c5ccncc5)cnn4)nc3c2)cn1 [Example 0763] | > 6.00 | – | –
Cc1nccn1-c1cnc2ccc(Nc3cc(C(C)C)cnn3)nc2c1 [Example 0513] | > 6.00 | – | –
Cn1cc(-c2cnc3ccc(Nc4cc(-c5ccccc5)cnn4)nc3c2)cn1 [Example 0570] | > 6.00 | – | –
COc1cncc(Nc2cnc3ccc(Nc4cncc(OC)c4)nc3c2)c1 [Example 0155, N^2,N^7-bis(5-methoxypyridin-3-yl)-1,5-naphthyridine-2,7-diamine] | – | – | pIC50 (human PI3Kα protein; [2]): 5.00 to 6.00
Cn1cc(-c2cnc3ccc(Nc4cc(C(C)(C)C)on4)nc3c2)cn1 [Example 0776, 5-(tert-Butyl)-N-(7-(1-methyl-1H-pyrazol-4-yl)-1,5-naphthyridin-2-yl)isoxazole-3-amine] | – | 4.30 to 5.00 | –
Cc1ccnc(Nc2ccc3ncc(-c4cnn(C)c4)cc3n2)c1 [Example 0546] | – | > 6.00 | –
Cn1cc(-c2cnc3ccc(Nc4ccccc4N)nc3c2)cn1 [Example 0675, N^1-(7-(1-methyl-1H-pyrazol-4-yl)-1,5-naphthyridin-2-yl)benzene-1,2-diamine] | – | 4.30 to 5.00 | –
Cn1cc(-c2cnc3ccc(Nc4ccncn4)nc3c2)cn1 [Example 0775, 7-(1-Methyl-1H-pyrazol-4-yl)-N-(pyrimidin-4-yl)-1,5-naphthyridine-2-amine] | – | > 6.00 | –
CC(C)c1cnnc(Nc2ccc3ncc(C(=O)N(C)C)cc3n2)c1 [Example 0643] | 4.30 to 5.00 | – | –
Cc1nnc(Sc2ccc3ncc(-c4cnn(C)c4)cc3n2)s1 [Example 0047, 2-methyl-5-((7-(1-methyl-1H-pyrazol-4-yl)-1,5-naphthyridin-2-yl)thio)-1,3,4-thiadiazole] | – | – | pIC50 (human PI3Kα protein; [2]): > 6.00
